{
  "source": "patent US10434083B2",
  "about": "“Transmammary delivery of cyclooxygenase-2 inhibitors for analgesia in neonates” (Iowa State University Research Foundation, Inc., priority 2018, dated 2019)",
  "key": {"[1]": {"test": "Preweaning piglet deaths per sow treatment group", "type": "in vivo, swine", "experimental": "Protocols involved intramuscular injection of Firocoxib to lactating sows at either 0.5, 1.0, 1.5 or 2 mg/kg, and analysis in sows and select piglets at 21 days post treatment. Pregnant Yorkshire×Landrace sows (mean±SEM bodyweight, 250.3±7.61 kg) that were approximately 1 week before farrowing were sourced from a commercial swine farm. Each sow was examined by a veterinarian to confirm that she was healthy and pregnant. A unique numerical ear tag (Allflex Global Ear Tags, Allflex USA, Inc., DFW Airport, TX) was placed in the right ear of each sow for identification. The sows were housed in a commercial swine operation at MVS (West Point, Nebr.) in accordance with the recommendations in the Guide for the Care and Use of Agricultural Animals in Agricultural Use and Research and Teaching (Guide for the Care and Use of Agricultural Animals in Agricultural Research and Teaching, 2010). Sows were placed in Quad- or Euro-style farrowing stalls (Thorp Equipment, Thorp, Wis.), depending on availability. Regardless of stall type, each sow was housed in a farrowing crate measuring 0.6 m×2.1 m. Quad and Euro crates had piglet creep areas of 7.0 m^2 and 6.4 m^2, respectively. After farrowing, a heat lamp was provided on one side of the creep area for the piglets in each crate. All sows were fed a diet that met or exceeded National Research Council (NRC, 2012) nutrient requirements and water was provided ad libitum. Each litter provided at least six male and three female piglets for sampling with the exception of one sow that had 5 males and 4 females in the litter, and one sow that had 3 males and 6 females in the litter. Piglets were clinically examined and weighed on Study Day 0 prior to dosing. Cross fostering of the litters was permitted. Bodyweights were used to randomly assign sows to 1 of 4 treatment groups (n=4 sows/group) as detailed in Table 3.\nA sample size of 4 sows was selected to describe the pharmacokinetics of firocoxib. For the comparison of plasma cortisol concentrations and average daily gain in bodyweight (ADG), a sample size of 36 piglets/treatment group was calculated to provide Statistical Power of 0.8 assuming an alpha of 0.05, sigma of 0.54 and delta of 0.20. At the time of study commencement (T0), sows received a single dose of firocoxib (Equioxx Injection, Merial, Duluth, Ga.) (Lot number 4VP07, Expiration Date November 2017) administered at either 0.5 mg/kg, 1.0 mg/kg, 1.5 mg/kg, or 2.0 mg/kg by IM injection into the right lateral neck using an 18-gauge, 1.5-inch needle attached to a 20-mL syringe (Table 3). In cases where the calculated dose volume exceeded 20-mL, the remaining volume was administered via IM injection in the left lateral neck muscle."}, "[2]": {"test": "Total firocoxib exposure in piglets as a percentage of sow AUC", "type": "in vivo, swine", "experimental": "The relative transfer of firocoxib from medicated sows to piglets was evaluated by comparing the piglet plasma drug concentration as a percentage of the sow plasma drug concentration at each time point. Total piglet exposure to firocoxib via milk consumed from treated dams was evaluated by comparing the firocoxib AUC for the piglets with the drug AUC calculated for the corresponding dams from each treatment. Exposure percentages were determined using the equation:\n[formula] Statistical Analysis"}, "[3]": {"test": "in vivo", "conditions": "female, Yorkshire×Landrace, swine", "experimental": "Tissue concentrations of firocoxib and its descyclopropylmethyl metabolite were determined using high-pressure liquid chromatography (Agilent 1100 Pump, Column Compartment and Autosampler, Agilent Technologies, Santa Clara, Calif., USA) with mass spectrometry detection (LTQ Ion Trap, Thermo Scientific, San Jose, Calif., USA). The tissue samples analysed were muscle, injection site, kidney, liver, and fat. Eight calibration spikes were prepared in blank porcine tissue in the concentration range of 0.05-10 μg/g. The tissue samples were thawed and homogenized in a Waring blender before extraction and analysis. […]\nPlasma and tissue firocoxib concentrations were determined using high-pressure liquid chromatography (Agilent 1100 Pump, Column Compartment and Autosampler, Agilent Technologies, Santa Clara, Calif.) with mass spectrometry detection (LTQ Ion Trap, Thermo Scientific, San Jose, Calif.). […] Full scan MS was used for analyte detection and three fragment ions were used for quantitation of each analyte species. […] Firocoxib and d6-firocoxib were analyzed in positive ion mode. […]\nFor plasma samples, the calibration curves had correlation coefficients (R^2) exceeding 0.995 across the concentration range. […] The limit of quantitation of the analysis was 1.0 ng/mL, with a limit of detection of 0.2 ng/mL. […]"}},
  "note": "Values joined by “and” are separate entries in the source; they are usually repeats but may differ in a detail not shown here. Equal entries are not always repeated.",
  "data": [
    {"compound": "CC1(C)OC(=O)C(OCC2CC2)=C1c1ccc(S(C)(=O)=O)cc1", "note": "[firocoxib]", "values": [
      {"measurement": "Preweaning piglet deaths, Total", "setting": "[1]; sow treatment group #1, 0.5 mg/kg", "result": 2},
      {"measurement": "Preweaning piglet deaths, Total", "setting": "[1]; sow treatment group #2, 1.0 mg/kg", "result": 3},
      {"measurement": "Preweaning piglet deaths, Total", "setting": "[1]; sow treatment group #3, 1.5 mg/kg", "result": 3},
      {"measurement": "Preweaning piglet deaths, Total", "setting": "[1]; sow treatment group #4, 2.0 mg/kg", "result": 0},
      {"measurement": "% Exposure (AUClast, piglet vs sow)", "setting": "[2]; sow dose 0.5 mg/kg", "result": 41.42, "unit": "%"},
      {"measurement": "% Exposure (AUC∞, piglet vs sow)", "setting": "[2]; sow dose 0.5 mg/kg", "result": 43.51, "unit": "%"},
      {"measurement": "% Exposure (AUClast, piglet vs sow)", "setting": "[2]; sow dose 1.0 mg/kg", "result": 46.29, "unit": "%"},
      {"measurement": "% Exposure (AUC∞, piglet vs sow)", "setting": "[2]; sow dose 1.0 mg/kg", "result": 56.50, "unit": "%"},
      {"measurement": "% Exposure (AUClast, piglet vs sow)", "setting": "[2]; sow dose 1.5 mg/kg", "result": 46.83, "unit": "%"},
      {"measurement": "% Exposure (AUC∞, piglet vs sow)", "setting": "[2]; sow dose 1.5 mg/kg", "result": 53.31, "unit": "%"},
      {"measurement": "% Exposure (AUC∞, piglet vs sow)", "setting": "[2]; sow dose 2.0 mg/kg", "result": 26.75, "unit": "%"},
      {"measurement": "% Exposure (AUClast, piglet vs sow)", "setting": "[2]; sow dose 2.0 mg/kg, 2 mg/kg", "result": "25.32% and 25%"},
      {"measurement": "concentration at 21 d", "setting": "[3]", "result": "≤ 50", "unit": "ng/g"}
    ]}
  ]
}
